# Source: paper PMC11477482 (Molecules, 2024)
# “Also recorded” adds a separate entry of the source.
# What was measured:
# [1] = system: THP-1 cells (CD54 and CD86 expression); experiment: Skin sensitization potential, h-CLAT (CD54 and CD86 expression); assay type: cell-based, human; details: THP-1, h-CLAT
# Description: The cell culture of keratinocytes was detached with EDTA solution 1X (Sigma-Aldrich, St. Louis, MO, USA) when the cells reached 70–80% confluence in cell culture flasks. […] Macrophages were mechanically detached with a cell scraper and subcultured in (1:10) proportion of cellular suspension to a final volume of DMEM. […] Cells were subcultured every 2 or 3 days and maintained in culture for 2–3 months, according to ATCC® instructions.
# Following OECD guidelines, researchers utilized the THP-1 human monocyte cell line as a substitute for dendritic cells (DCs) to assess skin sensitization potential. […] The cell pellet was further resuspended in 100 µL of PBS and analyzed by flow cytometry using a BD Accuri™ C6 cytometer (San Jose, CA, USA).
# CD86 and CD54 levels were analyzed by flow cytometry using the acquisition channels FL1 and FL4. Mitochondrial O2^− production was measured by flow cytometry using the acquisition channel FL2. The relative fluorescence intensity (RFI) of CD86 and CD54 (THP-1 maturation assay) and MitoSOX (mitochondrial antioxidant activity) in the control and chemical-treated cells, based on the geometric mean fluorescence intensity (MFI), was calculated according to the following equation: RFI=MFI of chemical treated cells−MFI of chemical treated unstained cells/MFI of control treated cells−MFI of control unstained cells ×100
# [2] = Stability at different pH values (UV-vis absorbance); assay type: physicochemical; details: for pH stability: 100 µM buffered solutions, pH 2 to 8
# Description: Buffer solutions with pH values between 2 and 8 were prepared and their pH was measured. The buffer solutions were prepared according to Portuguese Pharmacopeia 11.0 specifications. Each compound solution (100 µM) buffered at a specific pH was prepared in triplicate. The solutions were stored at room temperature and protected from light. Aliquots of 3.00 mL were transferred to quartz cuvettes at specific time points, and their absorbance was measured by ultraviolet/visible (UV–vis) spectrophotometry. The blank for each pH corresponded to 3.00 mL of the respective buffer.
# [3] = Stability at different temperatures, pH 5 (UV-vis absorbance); assay type: physicochemical; details: for thermostability: pH 5, 4, 25, 40 and 60 °C
# Description: Each compound solution (100 µM) buffered at pH 5 was prepared in triplicate. The other three samples were stored at 4 °C, 25 °C, 40 °C, and 60 °C, protected from light. Aliquots of 3.00 mL were transferred to quartz cuvettes at specific time points, and their absorbance was measured by UV–vis spectrophotometry. The blank of each pH corresponded to 3.00 mL of respective buffer. Stability was determined in terms of the change in the maximum peak absorbance.
# [4] = system: NO production in LPS-stimulated RAW 264.7 macrophages; experiment: NO production in LPS-stimulated macrophages (Griess assay); assay type: cell-based, mouse; details: LPS 100 ng/mL, 24 h
# Description: The human keratinocytes (HaCaT, CLS 300493, Eppelheim, Germany) cell line was cultured with Dulbecco’s Modified Eagle’s Medium (DMEM) (Sigma-Aldrich, St. Louis, MO, USA), supplemented with 10% (v/v) of heat-inactivated fetal bovine serum (FBS), 1% (v/v) antibiotic solution (from a 10,000 U/mL penicillin and 10,000 μg/mL streptomycin stock) (Gibco, Carlsbad, CA, USA), 3.7 g/L sodium bicarbonate, and 1 mM sodium pyruvate (Sigma-Aldrich, St. Louis, MO, USA). The cell culture of keratinocytes was detached with EDTA solution 1X (Sigma-Aldrich, St. Louis, MO, USA) when the cells reached 70–80% confluence in cell culture flasks. The mouse macrophage cell line (RAW 264.7, ATCC TIB-71, Manassas, VA, USA) was cultured in DMEM supplemented with 10% (v/v) non-inactivated FBS, 1% (v/v) antibiotic solution, 1.5 g/L sodium bicarbonate, and 1 mM sodium pyruvate. Macrophages were mechanically detached with a cell scraper and subcultured in (1:10) proportion of cellular suspension to a final volume of DMEM. The human monocytic cell line THP-1 (ATCC® TIB-202™, American Type Culture Collection, Manassas, VA, USA) was cultivated in RPMI 1640 supplemented with 10% inactivated FBS, 25 mM (D)-glucose, 10 mM HEPES, 1 mM sodium pyruvate, 100 U/mL penicillin, and 100 μg/mL streptomycin, and maintained at a cell density of 0.4 × 10^6 cells/mL. Cells were subcultured every 2 or 3 days and maintained in culture for 2–3 months, according to ATCC® instructions. Nitric oxide (NO) production was measured by quantifying the accumulation of nitrites in culture supernatants using the Griess assay. […] After a 30 min incubation period at room temperature, protected from light, the absorbance was read at 550 nm using a microplate spectrophotometer. The concentration of nitrites present in the supernatants was determined by interpolation of the absorbance of each sample in a sodium nitrite standard curve. The results of four independent experiments, in duplicate, were expressed as the percentage of NO production by cells versus the concentration of the chemicals compared with LPS (100%).
"variations in absorbance ([2]; acidic and neutral pH, 100 µM aqueous buffer)","absorbance normalized to t = 0 ([3]; pH 5, 60 °C, in 2 h)","absorbance normalized to t = 0 ([3]; pH 5, storage at 25 °C)",Compound,skin sensitization potential [1],pH stability [2],thermostability [3],effect on NO production [4],reduction of NO production ([4]; relative to LPS = 100%)
–,–,–,"O=C1OC(C(COS(=O)(=O)O)OS(=O)(=O)O)C(OS(=O)(=O)O)=C1OC1OC(COS(=O)(=O)O)C(OS(=O)(=O)O)C(OS(=O)(=O)O)C1OS(=O)(=O)O [AAGS, 2-O-α-D-glucopyranosyl-L-ascorbic acid persulfate]","non-sensitizing profile; also recorded: AA, AAG, and AAGS with non-sensitizer profile",improved stability covering a larger range of pH values (pH = 2–6),highest level of stability among the compounds,–,–
–,–,–,"O=C1O[C@H]([C@@H](O)CO)C(O)=C1O[C@H]1O[C@H](CO)[C@@H](O)[C@H](O)[C@H]1O [AAG, 2-O-α-D-glucopyranosyl-L-ascorbic acid]","AA, AAG, and AAGS with non-sensitizer profile",–,–,inhibited NO production,–
> 90%,< 30%,< 50%,"O=C1O[C@H]([C@@H](O)CO)C(O)=C1O [AA, Ascorbic acid]",–,unstable at acidic and neutral pH,decomposed with time at all the temperatures tested,inhibited NO production,30%
